Columns and labels:
CCl4 intoxicated mice = assay: Effect on SGPT level of CCl4-intoxicated mice (pretreatment, Table 1); format: in vivo, mice (male Kunming strain)
Procedure: (§1) Male Kunming strain mice weighing 18-22 grams were used throughout the experiments. The compound to be tested was suspended in 5% Tween 80 and given orally by gavage. The vehicle of 5% Tween 80 solution was administered to control mice via the same route. In the vitro experiments,the compound was dissolved in dimethylformamide and added directly into the incubation mixture.
(§2) The parameters adopted for hepatotoxicicity included serum tranaminase (SGPT), liver triglycerides, and pathological examination of liver tissues. The liver lesions were scored mainly by the extent of inflammation and necrosis and graded from 0 to 4.
Mice were divided into several groups.
The control group received the vehicle. The other groups were given two doses of the compound (250 mg/kg) at an interval of 8 h, respectively. All the mice were injected ip 10 ml/kg of 0.1% CCl4 in vegetable oil 24 h after the last administration of the compound. The mice were fasted for 16 h and sacrificed by decapitation. SGPT and liver lipids were determined. A piece of liver was processed into sectins for pathological examination.

[1] = test system: CCl4 hepatotoxicity in mice; assay: Therapeutic effect on CCl4 (0.15%) hepatotoxicity in mice (Table 2); format: in vivo, mice (male Kunming strain)
Procedure: as §1, §2
In the experiments of anti-CCl4 hepatotoxicity, mice were first injected 10 ml/kg of 0.15% CCl4 in vegetable oil every other day for three doses. The treatment of mice with the compound (250 mg/kg daily) started from the second to fifth day after the first injection of CCl4. The determination of SGPT and pathological examination of liver tissues were performed on day 7 of the experiment.

[2] = test system: CCl4 hepatotoxicity in mice; assay: Protective action against CCl4 (0.1%) hepatotoxicity in mice (Table 3); format: in vivo, mice (male Kunming strain); conditions: for SGPT (± SE): two doses, 9 per group, control 3016 ± 23; for SGPT (± SE) / Liver lipids: CCl4 0.1% 10 ml/kg i.p.; for Liver lipids: control 21.0 ± 4.2; for decreasing SGPT level and liver injuries (in words): CCl4 0.1% ip
Procedure: as §1, §2
In another experiment, mice were first administered two doses of the compound and injected ip 10 ml/kg of 0.1% CCl4 in vegetable oil 24 h after administration of the second dose.

[3] = test system: thioacetamide hepatotoxicity in mice; assay: Protective action against thioacetamide hepatotoxicity in mice (Table 4); format: in vivo, mice (male Kunming strain)
Procedure: as §1, §2
In the experiment of thioacetamide hepatotoxicity, mice were treated according to the procedure of CCl4 intoxication as described above except that thioacetamide 50 mg/kg was injected instead of CCl4.

[4] = test system: acetaminophen hepatotoxicity in mice; assay: Anti-acetaminophen hepatotoxicity experiment in mice; format: in vivo, mice (male Kunming strain); conditions: 250 mg/kg two doses first day and same dose second day; acetaminophen 150 mg/kg ip
Procedure: as §1, §2
In the anti-acetaminophen hepatotoxicity experiment, mice received two doses (250 mg/kg) of the compound on the first day and the same dose on the second day. A dose of 150 mg/kg of acetaminophen was injected ip 6 h after the last dose of the compound, SGPT was determined and liver tissues were examined 20 h after acetaminophen injection.

[5] = test system: serum and liver transaminase (GPT); assay: Effect on serum and liver transaminase (GPT) levels of normal mice (Table 5); format: in vivo, mice (male Kunming strain)
Procedure: as §1
Groups of mice were administered the vehicle or 250 mg/kg of the compound once daily for 7 consecutive days. The serum and liver GPT were determined 24 h after the last dose administration.

[6] = test system: CCl4-initiated lipid peroxidation of liver microsomes (MDA); assay: CCl4-initiated lipid peroxidation of liver microsomes, MDA formation in vitro (Table 6); format: biochemical, mice (phenobarbital-induced); conditions: 1 mM compound
Procedure: as §1
(§3) CCl4 hepatotoxicity has been considered to be due to formation of free radicals which initiate lipid peroxidation or covalent binding to macromolecules of microsomes. Thus, the structures and function of cell membranes were destroyed. The effect of the compound on CCl4 induced lipid peroxidation (malonic dialdehyde, MDA, in vitro, and diene conjugates in vivo) and ^14 CCl4 covalent binding to lipids and proteins of microsomes were investigated.
MDA formation: The compound was pre-incubated with NADPH-reduced liver microsomes from phenobarbital-induced mice at 37° C. for 15 minutes, 10 ul of CCl4 (diluted with 20 volume of ethanol) was added into the incubation mixture, reincubated for 20 minutes. The production of MDA was determined by the method of thiobarbituric acid.

[7] = test system: diene conjugates in liver microsomes of CCl4-intoxicated mice; assay: CCl4-initiated lipid peroxidation, diene conjugates in vivo (Table 6); parameters: species or system mice (male Kunming strain); conditions: 250 mg/kg, 1 ml/kg CCl4
Procedure: as §1, §3
Diene conjugates: Mice were given two doses of 250 mg/kg of the compound on the first day and followed by the same dose on the second day and then received an injection of 1 ml/kg of CCl4. The mice were killed 1 h after the CCl4 injection. The diene conjugates in liver microsomes were extracted with chloroform-methanol (2:1) and washed with methanol 0.9% NaCl solution. The absorption of diene conjugates in the chloroform layer at 243 nm was measured with spectrophotometer.

microsomal lipids = assay: 14CCl4 covalent binding to microsomal lipids; format: biochemical, mice; conditions: 1 mM, NADPH-reduced liver microsomes
Procedure: as §1, §3
(§4) The condition of incubation was similar to that of MDA production. The compound was pre-incubated with NADPH-reduced liver microsomes for 10 minutes. The final concentration of the compound was 1 mM. ^14 CCl4 0.5 uci was added to the incubation mixture. Incubation was continued for another 60 minutes. The radio-activity of ^14 CCl4 in microsomal lipids and proteins was separated by the method of extraction of diene conjugates and counted by liquid scintillation.

microsomal proteins = assay: 14CCl4 covalent binding to microsomal proteins; format: biochemical, mice; conditions: 1 mM, NADPH-reduced liver microsomes
Procedure: as §1, §3, §4

liver = assay: Liver weight and microsomal protein content (Table 7); format: in vivo, mice (male Kunming strain)
Procedure: as §1
(§5) The liver microsomal cytochrome P-450 plays a key role in the detoxification of xenobiotics. […] Mice were administered 250 mg/kg of the compound once daily for 3 days. The control mice received the vehicle. The mice were killed after fasting overnight. Liver microsomes were prepared and microsomal monooxygenases were determined.

[8] = test system: hepatic microsomal cytochrome P-450; assay: Induction of hepatic microsomal cytochrome P-450 in mice (Table 7); format: in vivo, mice (male Kunming strain); conditions: for hepatic cytochrome P-450 (in words): 250 mg/kg once daily, 3 days
Procedure: as §1, §5
(§6) In another experiment, mice were given a dose of 250 mg/kg of the compound. Sodium pentobarbital (50 mg/kg) was injected ip 1 and 24 h after administration of the compound. The sleeping time was estimated by recording the interval of disappearance and recovery of righting reflex. […] It means that the prolongation of pentobarbital sleeping time by the compound was due to the inhibition of liver drug metabolism enzyme.

[9] = test system: NADPH-cytochrome c reductase; assay: Hepatic NADPH-cytochrome c reductase in mice (Table 7); format: in vivo, mice (male Kunming strain)
Procedure: as §1, §5

cytochrome b5 = assay: Hepatic cytochrome b5 in mice (Table 7); format: in vivo, mice (male Kunming strain)
Procedure: as §1, §5

aminopyrine demethylase = assay: Hepatic aminopyrine demethylase in mice (Table 7); format: in vivo, mice (male Kunming strain)
Procedure: as §1, §5

[10] = test system: benzo(a)pyrene hydroxylase; assay: Hepatic AHH / benzo(a)pyrene hydroxylase in mice (Table 7); format: in vivo, mice (male Kunming strain)
Procedure: as §1, §5

[11] = test system: pentobarbital sleeping time in mice; assay: Pentobarbital sleeping time in mice (Table 8); format: in vivo, mice (male Kunming strain); conditions: for Sleeping time (X ± SE): 250 mg/kg, 10 per group, control 71 ± 7, P <0.01, in min (unit assumed)
Procedure: as §1, §6

[12] = test system: barbital sleeping time in mice; assay: Barbital sleeping time in mice (Table 8); format: in vivo, mice (male Kunming strain)
Procedure: as §1
as §6, with “Sodium pentobarbital (50 mg/kg) was injected ip 1 and 24 h after administration of the compound.” left out

[13] = listed as compound of the general formula (I), R1 =H, R2 =CH3

## CN(CCc1ccccc1)C(=O)C(O)C(O)c1ccccc1 (stereo not shown) [Compound, 2,3-dihydroxy-N-methyl-3-phenyl-N-(2-phenylethyl)-propionic acid amide]
CCl4 intoxicated mice; 250 mg/kg × 2, oral, 0.1% CCl4 10 ml/kg ip 24 h later, 9 per group, control 1678 ± 261, P <0.05
  SGPT (X ± SE): 727 ± 266 unit %
CCl4 intoxicated mice; 250 mg/kg × 2, CCl4 ip
  effect on elevated SGPT of CCl4-intoxicated mice (in words): significantly decreased the elevated SGPT
CCl4 intoxicated mice; mouse, in vivo
  hepatoprotective action against CCl4 (conclusion, in words): has hepatoprotective action against CCl4
[1]; 250 mg/kg daily, day 7 examination
  effect on liver lesions (in words): no effect on liver lesions
[1]; 250 mg/kg daily, second to fifth day after first CCl4
  SGPT lowering action (in words): significant SGPT lowering action
[1]; 250 mg/kg/day × 4, CCl4 0.15% in vegetable oil 10 ml/kg × 3, 8 per group, control 2695 ± 110, P <0.01
  SGPT (x ± SE): 1801 ± 312 unit %
[2]; 125 mg/kg
  SGPT (± SE): 2727 ± 162 unit %
  Liver lipids: 21.0 ± 3.8 mg/g
  decreasing SGPT level and liver injuries (in words): without effect
[2]; 250 mg/kg, footnote <0.01
  SGPT (± SE): 2270 ± 221 unit %
[2]; 250 mg/kg
  Liver lipids: 22.5 ± 5.5 mg/g
  decreasing SGPT level and liver injuries (in words): effective for decreasing SGPT level and liver injuries
[2]; 250 mg/kg, graded from 0 to 4, control 1.70
  Liver lesions, Inflammation (Grade): 0.16 Grade
[2]; 250 mg/kg, graded from 0 to 4, control 2.33
  Liver lesions, Necrosis (Grade): 0.72 Grade
[3]; 250 mg/kg × 2, thioacetamide 50 mg/kg ip, 9 per group, control 1696 ± 231, footnote <0.05
  SGPT (± SE): 1045 ± 166 unit %
[3]; 250 mg/kg × 2, thioacetamide 50 mg/kg ip, control 61 ± 11.7
  Liver lipids (± SE): 59 ± 11.3 mg/g
[3]; mouse, in vivo
  protection against thioacetamide hepatotoxicity (conclusion, in words): protected against thioacetamide hepatotoxicity
[3]; thioacetamide 50 mg/kg
  effect on SGPT levels, thioacetamide hepatotoxicity (in words): markedly lowered the SGPT levels
[4]
  anti-acetaminophen hepatotoxicity (in words): inactive
[5]; 250 mg/kg once daily, 7 days
  SGPT level of normal mice (in words): slightly higher than that of the control but the difference was not significant
[5]; normal mice, 250 mg/kg/day × 7, 8 per group, control 217 ± 17.5
  SGPT (± SE): 272 ± 27.8 unit %
[5]; normal mice, 250 mg/kg/day × 7, 8 per group, control 260 ± 11.6
  LGPT (liver GPT, ± SE): 234 ± 13.6 unit %
[6]
  Inhibition of MDA: 16.3%
  MDA production / lipid peroxidation of microsomes induced by CCl4 (in words): inhibited MDA production initiated by CCl4 in vitro
[6]; [13]
  MDA production / lipid peroxidation of microsomes induced by CCl4 (in words): could inhibit lipid peroxidation
[6]; number of determinations 3, control 35.5
  MDA: 29.7 ± 4 OD × 100/1.5 mg
[7]; two doses first day and same dose second day
  diene conjugates production in livers (in words): would not inhibit diene conjugates production
[7]; in vivo, number of determinations 8, control 55.8 ± 2.3
  Diene conjugates: 54.8 ± 3.3 OD × 100/g liver
Microsomal lipids
  covalent binding of 14CCl4 to microsomal lipids (in words): not inhibited
Microsomal proteins
  covalent binding of 14CCl4 to microsomal proteins (in words): not inhibited
liver; 250 mg/kg day × 3, 6 per group, control 4.0 ± 0.2, P >0.05
  Liver weight: 4.3 ± 0.2 g %
liver; 250 mg/kg day × 3, control 6.3 ± 0.3, P >0.05
  Microsomal protein: 7.0 ± 0.5 mg/g liver
liver; 250 mg/kg once daily, 3 days
  increase of liver size (in words): not seen
  increase of microsomal protein content (in words): not seen
[8]; 250 mg/kg day × 3, control 0.87 ± 0.07, P <0.01
  Cytochrome P-450: 1.23 ± 0.06 nmol/mg protein
[8]
  hepatic cytochrome P-450 (in words): increased significantly
[8]; [13]
  hepatic cytochrome P-450 (in words): inducing action on hepatic cytochrome p-450
[8]; concluded from barbiturate sleeping times
  biphasic actions on hepatic microsomal cytochrome p-450 (in words): inhibition followed by induction
[9]; 250 mg/kg day × 3, control 103 ± 2.5, P <0.01
  NADPH-cytochrome C reductase: 148 ± 2.5 nmol cytochrome c reduced/min/
[9]; 250 mg/kg once daily, 3 days
  NADPH-cytochrome c reductase activity (in words): increased significantly
Cytochrome b5; 250 mg/kg day × 3, control 0.15 ± 0.01, P >0.05
  Cytochrome b5: 0.16 ± 0.016 nmol/mg protein
Cytochrome b5; 250 mg/kg once daily, 3 days
  cytochrome b5 (in words): increased significantly
Aminopyrine demethylase; 250 mg/kg day × 3, control 81 ± 63, P <0.01
  Aminopyrine demethylase: 107 ± 5.8 nmol HCHO/min/mg protein
Aminopyrine demethylase; 250 mg/kg once daily, 3 days
  aminopyrine demethylase activity (in words): increased significantly
[10]; 250 mg/kg day × 3, control 2.6 ± 0.4, P <0.01
  AHH: 6.2 ± 0.42 nmol/min/mg protein
[10]; 250 mg/kg once daily, 3 days
  benzo(a)pyrene hydroxylase activity (in words): increased significantly
[11]; 1 h before pentobarbital 50 mg/kg ip
  Sleeping time (X ± SE): 132 ± 13
[11]; 24 h before pentobarbital 50 mg/kg ip
  Sleeping time (X ± SE): 45 ± 6
[11]; compound 1 h prior to pentobarbital
  pentobarbital sleeping time (in words): prolonged markedly
[11]; compound 24 h before pentobarbital
  pentobarbital sleeping time (in words): shortened significantly
[12]; 1 h before barbital 200 mg/kg, 10 per group, control 197 ± 27, P >0.05
  Sleeping time (X ± SE): 172 ± 13
[12]; prior administration of compound
  barbital sleeping time (in words): did not affect sleeping time

— US4826873A, “2,3-dihydroxy-3-phenyl-N-(2-phenyl-ethyl)-propionic acid amides derivatives thereof” (priority 1986, dated 1989)
